Assay results from patent publication US7608717B2, “Sulfonyldihydroimidazopyridinone compounds as 5-hydroxytryptamine-6 ligands” (Wyeth, priority 2003, dated 2009).

Target: T1, human cloned 5-HT6 receptors (Homo sapiens, UniProt P50406)
T1 construct: expressed in transfected cells; host or cells: HeLa cells
Experiment: 5-HT6 binding affinity ([3H]-LSD displacement, membranes of Hela cells expressing human cloned 5-HT6 receptors)
Settings: [3H]-LSD 3.0 nM, Hela cell membranes, 120 min at room temperature
Procedure: The affinity of test compounds for the serotonin 5-HT6 receptor is evaluated in the following manner. Cultured Hela cells expressing human cloned 5-HT6 receptors are harvested and centrifuged at low speed (1,000×g) for 10.0 min to remove the culture media. The harvested cells are suspended in half volume of fresh physiological phosphate buffered saline solution and recentrifuged at the same speed. This operation is repeated. The collected cells are then homogenized in ten volumes of 50 mM Tris.HCl (pH 7.4) and 0.5 mM EDTA. The homogenate is centrifuged at 40,000×g for 30.0 min and the precipitate is collected. The obtained pellet is resuspended in 10 volumes of Tris.HCl buffer and recentrifuged at the same speed. The final pellet is suspended in a small volume of Tris.HCl buffer and the tissue protein content is determined in aliquots of 10-25 μl volumes. Bovine Serum Albumin is used as the standard in the protein determination according to the method described in Lowry et al., J. Biol. Chem., 193:265 (1951). The volume of the suspended cell membranes is adjusted to give a tissue protein concentration of 1.0 mg/ml of suspension. The prepared membrane suspension (10 times concentrated) is aliquoted in 1.0 ml volumes and stored at −70° C. until used in subsequent binding experiments.
Binding experiments are performed in a 96 well microtiter plate format, in a total volume of 200 μl. […] The test compounds are added in 20.0 μl volume.
The reaction is allowed to proceed in the dark for 120 min at room temperature, at which time, the bound ligand-receptor complex is filtered off on a 96 well unifilter with a Packard Filtermate® 196 Harvester. The bound complex caught on the filter disk is allowed to air dry and the radioactivity is measured in a Packard TopCount® equipped with six photomultiplier detectors, after the addition of 40.0 μl Microscint®-20 scintillant to each shallow well. The unifilter plate is heat-sealed and counted in a PackardTopCount® with a tritium efficiency of 31.0%.
Binding in the presence of varying concentrations of test compound is expressed as a percentage of specific binding in the absence of test compound. The results are plotted as log % bound versus log concentration of test compound. […] A linear regression line of data points is plotted, from which the IC50 value is determined and the Ki value is determined based upon the following equation: Ki=IC50/(1+L/KD) where L is the concentration of the radioactive ligand used and KD is the dissociation constant of the ligand for the receptor, both expressed in nM.

T1 sequence (P50406 whole entry): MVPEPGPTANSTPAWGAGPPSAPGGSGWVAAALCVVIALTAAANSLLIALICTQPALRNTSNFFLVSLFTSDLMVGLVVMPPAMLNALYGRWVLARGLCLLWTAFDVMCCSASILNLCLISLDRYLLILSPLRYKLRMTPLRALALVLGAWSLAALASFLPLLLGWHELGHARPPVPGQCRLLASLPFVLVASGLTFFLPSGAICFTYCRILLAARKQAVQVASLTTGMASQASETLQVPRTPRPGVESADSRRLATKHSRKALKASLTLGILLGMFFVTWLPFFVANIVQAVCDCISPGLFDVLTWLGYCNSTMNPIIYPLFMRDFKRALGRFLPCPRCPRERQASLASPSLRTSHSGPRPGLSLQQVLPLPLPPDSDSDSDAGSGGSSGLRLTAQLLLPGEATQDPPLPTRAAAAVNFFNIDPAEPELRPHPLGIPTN

SMILES | Ki
CN(C)CCn1c(=O)n(S(=O)(=O)c2cccc(F)c2)c2cccnc21 [Example 4, 3-(2-dimethylaminoethyl)-1-[(3-fluorophenyl)sulfonyl]-1,3-dihydro-2H-imidazo[4,5-b]pyridin-2-one] | 80 nM
CN(C)CCn1c(=O)n(S(=O)(=O)c2cccc(Br)c2)c2cccnc21 [Example 7, 1-[(3-bromophenyl)sulfonyl]-3-[2-(dimethylamino)ethyl]-1,3-dihydro-2H-imidazo[4,5-b]pyridin-2-one] | 23 nM
NCCn1c(=O)n(S(=O)(=O)c2ccc(Cl)s2)c2cccnc21 [Example 14, 3-(2-Aminoethyl)-1-[(5-chlorothien-2-yl)sulfonyl]-1,3-dihydro-2H-imidazo[4,5-b]pyridin-2-one] | 18 nM
NCCn1c(=O)n(S(=O)(=O)c2ccccc2)c2cccnc21 [Example 15, 3-(2-aminoethyl)-1-(phenylsulfonyl)-1,3-dihydro-2H-imidazo[4,5-b]pyridin-2-one] | 44 nM
NCCn1c(=O)n(S(=O)(=O)c2cccc(Cl)c2)c2cccnc21 [Example 16, 3-(2-aminoethyl)-1-[(3-chlorophenyl)sulfonyl]-1,3-dihydro-2H-imidazo[4,5-b]pyridin-2-one] | 16 nM
NCCn1c(=O)n(S(=O)(=O)c2c(Cl)nc3sccn23)c2cccnc21 [Example 17, 3-(2-aminoethyl)-1-[(6-chloroimidazo[2,1-b][1,3]thiazol-5-yl)sulfonyl]-1,3-dihydro-2H-imidazo[4,5-b]pyridin-2-one] | 4 nM
NCCn1c(=O)n(S(=O)(=O)c2ccc3ccccc3c2)c2cccnc21 [Example 18, 3-(2-aminoethyl)-1-(2-naphthylsulfonyl)-1,3-dihydro-2H-imidazo[4,5-b]pyridin-2-one] | 5 nM
COc1cccc(S(=O)(=O)n2c(=O)n(CCN)c3ncccc32)c1 [Example 19, 3-(2-aminoethyl)-1-[(3-methoxyphenyl)sulfonyl]-1,3-dihydro-2H-imidazo[4,5-b]pyridin-2-one] | 14 nM
NCCn1c(=O)n(S(=O)(=O)c2ccccc2F)c2cccnc21 [Example 20, 3-(2-aminoethyl)-1-[(2-fluorophenyl)sulfonyl]-1,3-dihydro-2H-imidazo[4,5-b]pyridin-2-one] | 77 nM
NCCn1c(=O)n(S(=O)(=O)c2ccccc2Cl)c2cccnc21 [Example 22, 3-(2-aminoethyl)-1-[(2-chlorophenyl)sulfonyl]-1,3-dihydro-2H-imidazo[4,5-b]pyridin-2-one] | 55 nM
NCCn1c(=O)n(S(=O)(=O)c2ccc(Cl)cc2)c2cccnc21 [Example 23, 3-(2-aminoethyl)-1-[(4-chlorophenyl)sulfonyl]-1,3-dihydro-2H-imidazo[4,5-b]pyridin-2-one] | 17 nM
NCCn1c(=O)n(S(=O)(=O)c2cccc(Cl)c2Cl)c2cccnc21 [Example 24, 3-(2-aminoethyl)-1-[(2,3-dichlorophenyl)sulfonyl]-1,3-dihydro-2H-imidazo[4,5-b]pyridin-2-one] | 9 nM
NCCn1c(=O)n(S(=O)(=O)c2cccc(Br)c2)c2cccnc21 [Example 25, 3-(2-aminoethyl)-1-[(3-bromophenyl)sulfonyl]-1,3-dihydro-2H-imidazo[4,5-b]pyridin-2-one] | 12 nM
NCCn1c(=O)n(S(=O)(=O)c2ccc(Br)s2)c2cccnc21 [Example 26, 3-(2-aminoethyl)-1-[(5-bromothien-2-yl)sulfonyl]-1,3-dihydro-2H-imidazo[4,5-b]pyridin-2-one] | 9 nM
NCCn1c(=O)n(S(=O)(=O)c2cc(Cl)sc2Cl)c2cccnc21 [Example 27, 3-(2-aminoethyl)-1-[(2,5-dichlorothien-3-yl)sulfonyl]-1,3-dihydro-2H-imidazo[4,5-b]pyridin-2-one] | 22 nM
